For one test, the target named is PI3Kα (p110α/p85α) (Homo sapiens (Human), UniProt P42336). Briefly: PI3Kα enzymatic test by measuring the consumption of ATP. The format is biochemical. The gist of the method:
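ATP consumption read out by KinaseGlo luminescence after a 90 min reaction of 1.7 μg/ml PI3Kα (p110α/p85α) with 2 μM ATP and 50 μM PIP2, buffered at pH 7.5 (Tris, 10 mM MgCl2, 1 mM EGTA, 0.03% Chaps, 1 mM DTT). Threefold dilution series over ≥10 000-fold range yield IC50.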

The target in test [1] is mTOR (human recombinant aa mTOR 1360-2549) (Homo sapiens (Human), UniProt P42345). The experiment in a line: mTOR enzymatic test by TR-FRET (phosphorylation of GFP-4EBP1). It counts as biochemical. The gist of the method:
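After a 30 min room-temperature kinase reaction, EDTA (10 mM final) and Tb-labelled phospho-Thr46 antibody (2 nM final) were added and incubated 60 min. Energy transfer from Tb to phosphorylated GFP-4EBP1 was read at 340 nm excitation, emissions 490/520 nm. Values derive from the 520/490 fluorescence ratio.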

Another test concerns U87MG tumour cells. Briefly: Test of in vitro proliferation of U87MG tumour cells. The format is cell-based. To be noted: Homo sapiens, U-87 MG, 72 h. How it is done: Model 4: Test of in vitro Proliferation of U87MG Tumour Cells.
The cell growth is determined with the reagent CellTiter 96 AQueous One Solution Cell Proliferation Assay from Promega (Cat. No. G3581).

A further test deals with Akt-pS473 in U87MG cells. To be noted: Homo sapiens, U-87 MG.
Where [2] appears, read: U87MG cells, 72 hours, read-out: U87 Cell Proliferation IC50.
Where [3] appears, read: read-out: U87 Akt-pS473 % Inhibition or IC50, nM (IC50), U87MG cells.

Structures are written as SMILES. Read-outs that look alike come from different tables or passages of the source.

Sequence of PI3Kα (p110α/p85α) (P42336 whole entry): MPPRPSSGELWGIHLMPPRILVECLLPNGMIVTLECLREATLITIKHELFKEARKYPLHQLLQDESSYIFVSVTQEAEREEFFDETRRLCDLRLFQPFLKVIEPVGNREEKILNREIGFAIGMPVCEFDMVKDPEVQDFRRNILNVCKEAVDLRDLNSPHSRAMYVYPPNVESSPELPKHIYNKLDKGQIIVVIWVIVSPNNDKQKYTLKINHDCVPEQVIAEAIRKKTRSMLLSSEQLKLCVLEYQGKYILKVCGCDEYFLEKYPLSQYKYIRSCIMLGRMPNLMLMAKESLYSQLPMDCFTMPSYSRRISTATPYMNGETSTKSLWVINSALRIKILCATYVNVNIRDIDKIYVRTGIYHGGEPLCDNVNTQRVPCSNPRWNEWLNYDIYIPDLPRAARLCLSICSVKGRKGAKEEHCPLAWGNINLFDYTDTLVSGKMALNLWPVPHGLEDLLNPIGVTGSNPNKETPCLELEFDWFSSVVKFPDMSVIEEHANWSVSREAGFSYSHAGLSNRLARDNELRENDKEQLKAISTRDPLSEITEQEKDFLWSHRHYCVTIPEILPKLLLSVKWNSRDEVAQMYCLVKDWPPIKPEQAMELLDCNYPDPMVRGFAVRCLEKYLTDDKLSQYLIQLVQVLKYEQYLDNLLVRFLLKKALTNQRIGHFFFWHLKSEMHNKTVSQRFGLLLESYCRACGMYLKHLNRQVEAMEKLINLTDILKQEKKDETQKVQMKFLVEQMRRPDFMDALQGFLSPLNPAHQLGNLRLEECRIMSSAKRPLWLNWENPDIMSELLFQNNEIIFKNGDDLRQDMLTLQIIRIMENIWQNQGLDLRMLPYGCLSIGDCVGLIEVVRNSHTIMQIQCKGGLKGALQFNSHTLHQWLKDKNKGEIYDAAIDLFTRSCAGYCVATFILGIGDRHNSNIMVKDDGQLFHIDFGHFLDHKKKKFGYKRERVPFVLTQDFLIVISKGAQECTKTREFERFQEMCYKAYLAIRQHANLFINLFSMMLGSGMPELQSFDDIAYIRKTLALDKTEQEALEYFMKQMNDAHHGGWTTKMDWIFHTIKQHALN
Sequence of PI3Kα (p110α/p85α) (P27986 whole entry partner): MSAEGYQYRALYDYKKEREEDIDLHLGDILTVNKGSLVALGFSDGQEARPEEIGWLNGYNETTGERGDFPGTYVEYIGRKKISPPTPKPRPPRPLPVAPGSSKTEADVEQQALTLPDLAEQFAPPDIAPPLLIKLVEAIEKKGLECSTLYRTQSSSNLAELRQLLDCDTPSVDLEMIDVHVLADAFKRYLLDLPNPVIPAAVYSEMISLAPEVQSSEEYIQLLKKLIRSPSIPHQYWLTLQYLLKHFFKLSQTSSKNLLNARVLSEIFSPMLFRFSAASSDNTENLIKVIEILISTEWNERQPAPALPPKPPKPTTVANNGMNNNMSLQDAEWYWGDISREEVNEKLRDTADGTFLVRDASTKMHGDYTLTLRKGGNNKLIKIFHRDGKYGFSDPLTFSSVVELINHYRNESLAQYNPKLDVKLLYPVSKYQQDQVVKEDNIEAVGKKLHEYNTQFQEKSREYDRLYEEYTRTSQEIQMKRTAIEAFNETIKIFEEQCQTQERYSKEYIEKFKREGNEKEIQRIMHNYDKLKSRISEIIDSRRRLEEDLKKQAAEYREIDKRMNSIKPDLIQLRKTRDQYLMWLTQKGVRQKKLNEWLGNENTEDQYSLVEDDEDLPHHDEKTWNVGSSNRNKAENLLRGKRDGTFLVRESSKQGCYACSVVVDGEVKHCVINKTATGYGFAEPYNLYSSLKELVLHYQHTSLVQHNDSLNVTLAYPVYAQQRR
Sequence of mTOR (human recombinant aa mTOR 1360-2549) (P42345 1360-2549): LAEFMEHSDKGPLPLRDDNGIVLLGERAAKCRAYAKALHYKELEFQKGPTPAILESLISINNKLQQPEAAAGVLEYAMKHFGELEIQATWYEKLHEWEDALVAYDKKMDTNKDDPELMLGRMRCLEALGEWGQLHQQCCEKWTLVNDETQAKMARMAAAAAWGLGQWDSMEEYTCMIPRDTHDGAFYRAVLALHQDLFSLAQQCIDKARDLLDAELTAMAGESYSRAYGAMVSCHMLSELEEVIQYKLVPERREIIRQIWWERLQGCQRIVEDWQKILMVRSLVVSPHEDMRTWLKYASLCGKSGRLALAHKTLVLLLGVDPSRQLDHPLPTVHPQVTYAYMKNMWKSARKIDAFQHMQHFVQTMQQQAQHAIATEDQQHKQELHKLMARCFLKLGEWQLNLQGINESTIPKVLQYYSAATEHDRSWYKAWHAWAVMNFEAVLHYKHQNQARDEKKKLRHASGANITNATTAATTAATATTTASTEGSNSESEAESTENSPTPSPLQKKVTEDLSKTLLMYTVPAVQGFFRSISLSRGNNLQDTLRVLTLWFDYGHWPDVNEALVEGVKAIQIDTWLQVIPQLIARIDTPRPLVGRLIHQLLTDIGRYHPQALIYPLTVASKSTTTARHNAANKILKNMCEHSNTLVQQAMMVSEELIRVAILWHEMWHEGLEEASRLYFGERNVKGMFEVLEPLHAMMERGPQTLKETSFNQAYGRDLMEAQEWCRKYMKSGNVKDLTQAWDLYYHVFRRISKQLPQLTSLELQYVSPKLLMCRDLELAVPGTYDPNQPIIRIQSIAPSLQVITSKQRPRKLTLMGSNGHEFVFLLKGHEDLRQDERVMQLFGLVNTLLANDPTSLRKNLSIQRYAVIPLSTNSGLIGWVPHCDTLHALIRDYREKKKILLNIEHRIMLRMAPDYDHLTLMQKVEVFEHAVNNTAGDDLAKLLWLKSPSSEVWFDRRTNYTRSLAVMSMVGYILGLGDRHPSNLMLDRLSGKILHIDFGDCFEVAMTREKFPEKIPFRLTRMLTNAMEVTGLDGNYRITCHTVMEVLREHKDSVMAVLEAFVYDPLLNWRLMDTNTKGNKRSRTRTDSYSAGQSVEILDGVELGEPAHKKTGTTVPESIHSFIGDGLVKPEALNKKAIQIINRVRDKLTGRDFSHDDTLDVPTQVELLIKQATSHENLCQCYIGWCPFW

Consider `COCCN1CC(C)(C)Oc2nc(N3CC4CCC(C3)O4)nc(-c3ccc(NC(=O)Nc4ccc(F)cc4F)cc3)c2C1=O` [Example 162, 1-(2,4-Difluorophenyl)-3-{4-[6-(2-methoxyethyl)-8,8-dimethyl-2-(8-oxa-3-azabicyclo[3.2.1]oct-3-yl)-5-oxo-5,6,7,8-tetrahydro-9-oxa-1,3,6-triazabenzocyclohepten-4-yl]phenyl}urea], for which the “PI3Ka IC50” value at PI3Kα (p110α/p85α) is greater than 10000 nM. The IC50 in test [1] is 147 nM; in the test with U87MG tumour cells (setting [2]), 486 nM; in the test with Akt-pS473 in U87MG cells (setting [3]) it was 110 nM.
`CCN1CC(C)(C)Oc2nc(N3CCOC[C@@H]3C)nc(-c3ccc(NC(=O)Oc4cccc(OC)c4)cc3)c2C1=O` [Example 193, {4-[6-Ethyl-8,8-dimethyl-2-((S)-3-methylmorpholin-4-yl)-5-oxo-5,6,7,8-tetrahydro-9-oxa-1,3,6-triazabenzocyclohepten-4-yl]phenyl}carbamic acid 3-methoxyphenyl ester]: at PI3Kα (p110α/p85α), the “PI3Ka IC50” value was determined as 9440 nM. The IC50 is 970 nM in test [1]; 4660 nM in the test on U87MG tumour cells (read-out: U87 Cell Proliferation IC50, nM); greater than 1000 nM with Akt-pS473 in U87MG cells (read-out: U87 Akt-pS473 % Inhibition or IC50, nM (IC50)).
In the case of `COc1ccnc(NC(=O)Nc2ccc(-c3nc(N4C5CCC4COC5)nc4c3C(=O)N(C)CC(C)(C)O4)cc2)c1` [Example 70, 1-(4-Methoxypyridin-2-yl)-3-{4-[6,8,8-trimethyl-2-(3-oxa-8-azabicyclo[3.2.1]oct-8-yl)-5-oxo-5,6,7,8-tetrahydro-9-oxa-1,3,6-triazabenzocyclohepten-4-yl]phenyl}urea], the “PI3Ka IC50” value on PI3Kα (p110α/p85α) is greater than 10000 nM. Also, the IC50 in test [1] worked out at 27 nM; in the test on U87MG tumour cells (setting [2]), 288 nM; in the test with Akt-pS473 in U87MG cells (setting [3]), 40 nM.
Consider `CCN1CC(C)(C)Oc2nc(N3CC4CCC(C3)O4)nc(-c3ccc(Nc4nnc(C)s4)cc3)c2C1=O` [Example 121, 6-Ethyl-8,8-dimethyl-4-[4-(5-methyl-[1,3,4]thiadiazol-2-ylamino)phenyl]-2-(8-oxa-3-azabicyclo[3.2.1]oct-3-yl)-7,8-dihydro-6H-9-oxa-1,3,6-triazabenzocyclohepten-5-one], for which the “PI3Ka IC50” value on PI3Kα (p110α/p85α) is given as greater than 10000 nM. Also, the IC50 in test [1] came to 66 nM; in the test with U87MG tumour cells (setting [2]), 802 nM; with Akt-pS473 in U87MG cells (setting [3]), 130 nM.
Regarding `CCN1CC(C)(C)Oc2nc(N3CC4CCC(C3)O4)nc(-c3ccc(NC(=O)Nc4ccc(OC)nn4)c(F)c3)c2C1=O` [Example 140, 1-{4-[6-Ethyl-8,8-dimethyl-2-(8-oxa-3-azabicyclo[3.2.1]oct-3-yl)-5-oxo-5,6,7,8-tetrahydro-9-oxa-1,3,6-triazabenzocyclohepten-4-yl]-2-fluorophenyl}-3-(6-methoxypyridazin-3-yl)urea], the “PI3Ka IC50” value at PI3Kα (p110α/p85α) is listed as greater than 10000 nM. In addition, the values for the IC50 (in test [1]; in the test with U87MG tumour cells (setting [2]); with Akt-pS473 in U87MG cells (setting [3])) were 45 nM, 472 nM and 507 nM, respectively.
Consider `CCN1CC(C)(C)Oc2nc(N3C4CCC3COC4)nc(-c3ccc(NC(=O)Nc4cc(C)nc(C)n4)cc3)c2C1=O` [Example 93, 1-(2,6-Dimethylpyrimidin-4-yl)-3-{4-[6-ethyl-8,8-dimethyl-2-(3-oxa-8-azabicyclo[3.2.1]oct-8-yl)-5-oxo-5,6,7,8-tetrahydro-9-oxa-1,3,6-triazabenzocyclohepten-4-yl]phenyl}urea], for which the “PI3Ka IC50” value at PI3Kα (p110α/p85α) is recorded as greater than 10000 nM. For the same compound, the results for the IC50 (in test [1]; in the test on U87MG tumour cells (setting [2]); in the test on Akt-pS473 in U87MG cells (setting [3])) were 72 nM, 410 nM and 65 nM, respectively.
With `CCN1CC(C)(C)Oc2nc(N3C4CCC3COC4)nc(-c3ccc(NC(=O)Nc4ccnc(C)c4)c(F)c3)c2C1=O` [Example 55, 1-{4-[6-Ethyl-8,8-dimethyl-2-(3-oxa-8-azabicyclo[3.2.1]oct-8-yl)-5-oxo-5,6,7,8-tetrahydro-9-oxa-1,3,6-triazabenzocyclohepten-4-yl]-2-fluorophenyl}-3-(2-methylpyridin-4-yl)urea], on PI3Kα (p110α/p85α), the “PI3Ka IC50” value came out at 4810 nM. Moreover, the values for the IC50 (in test [1]; in the test on U87MG tumour cells (setting [2]); in the test with Akt-pS473 in U87MG cells (setting [3])) were 66 nM, 54 nM and 27 nM, respectively.
As to `CCN1CC(C)(C)Oc2nc(N3CC4CCC(C3)O4)nc(-c3ccc(NC(=O)Nc4ccc(N5CCOC[C@@H]5C)nc4)c(F)c3)c2C1=O` [Example 29, 1-{4-[6-ethyl-8,8-dimethyl-2-(8-oxa-3-azabicyclo[3.2.1]oct-3-yl)-5-oxo-5,6,7,8-tetrahydro-9-oxa-1,3,6-triazabenzocyclohepten-4-yl]-2-fluorophenyl}-3-[6-((S)-3-methylmorpholin-4-yl)pyridin-3-yl]urea], the “PI3Ka IC50” value at PI3Kα (p110α/p85α) is reported as greater than 10000 nM. Further, the IC50 in test [1] came out at 38 nM; in the test with U87MG tumour cells (setting [2]), 165 nM; with Akt-pS473 in U87MG cells (setting [3]), 32 nM.
Regarding `CCN1CC(C)(C)Oc2nc(N3CC4CCC(C3)O4)nc(-c3ccc(NC(=O)Nc4ccc(N5CCN(C(=O)OC)CC5)nc4)c(F)c3)c2C1=O` [Example 81, 4-[5-(3-{4-[6-Ethyl-8,8-dimethyl-2-(8-oxa-3-azabicyclo[3.2.1]oct-3-yl)-5-oxo-5,6,7,8-tetrahydro-9-oxa-1,3,6-triazabenzocyclohepten-4-yl]-2-fluorophenyl}ureido)pyridin-2-yl]piperazine-1-carboxylic acid methyl ester], the “PI3Ka IC50” value on PI3Kα (p110α/p85α) worked out at 2100 nM. The IC50 is 124 nM in test [1], 108 nM in the test with U87MG tumour cells (setting [2]) and 17 nM with Akt-pS473 in U87MG cells (setting [3]).
As for `CCNC(=O)Nc1ccc(-c2nc(N3C4CCC3COC4)nc3c2C(=O)N(CC)CC(C)(C)O3)cc1F` [Example 255, 1-Ethyl-3-{4-[6-ethyl-8,8-dimethyl-2-(3-oxa-8-azabicyclo[3.2.1]oct-8-yl)-5-oxo-5,6,7,8-tetrahydro-9-oxa-1,3,6-triazabenzocyclohepten-4-yl]-2-fluorophenyl}urea], the “PI3Ka IC50” value at PI3Kα (p110α/p85α) is reported as greater than 10000 nM. The IC50 in test [1] stood at 72 nM; in the test with U87MG tumour cells (setting [2]), 210 nM; in the test on Akt-pS473 in U87MG cells (setting [3]), 68 nM.
In general, inhibition refers to the relative decrease from the control value, in per cent. Consider `CCN1CC(C)(C)Oc2nc(N3CCOC[C@@H]3C)nc(-c3ccc(NC(=O)Nc4ccc(OC)nc4)c(C)c3)c2C1=O` [Example 196, 1-{4-[6-Ethyl-8,8-dimethyl-2-((S)-3-methylmorpholin-4-yl)-5-oxo-5,6,7,8-tetrahydro-9-oxa-1,3,6-triazabenzocyclohepten-4-yl]-2-methylphenyl}-3-(6-methoxypyridin-3-yl)urea], for which the “PI3Ka IC50” value on PI3Kα (p110α/p85α) came to 7470 nM. Moreover, the IC50 in test [1] was 276 nM; in the test with U87MG tumour cells (setting [2]), 5050 nM. Moreover, the inhibition at 3 µM in the test with Akt-pS473 in U87MG cells (read-out: U87 Akt-pS473 % Inhibition) was 60%.
Take `CCN1CC(C)(C)Oc2nc(N3CC4CCC(C3)O4)nc(-c3ccc(NC(=O)Nc4ccc(N5CCOCC5)nc4)c(F)c3)c2C1=O` [Example 200, 1-{4-[6-Ethyl-8,8-dimethyl-2-(8-oxa-3-azabicyclo[3.2.1]oct-3-yl)-5-oxo-5,6,7,8-tetrahydro-9-oxa-1,3,6-triazabenzocyclohepten-4-yl]-2-fluorophenyl}-3-(6-morpholin-4-ylpyridin-3-yl)urea]: the “PI3Ka IC50” value at PI3Kα (p110α/p85α) is on record as greater than 10000 nM. Moreover, the IC50 in test [1] came out at 52 nM; in the test on U87MG tumour cells (setting [2]) it was 108 nM; in the test with Akt-pS473 in U87MG cells (setting [3]), 9 nM.
Take `COc1ccc(NC(=O)Nc2ccc(-c3nc(N4CC5CCC(C4)O5)nc4c3C(=O)N(C)CC(C)(C)O4)cc2)nc1` [Example 54, 1-(5-Methoxypyridin-2-yl)-3-{4-[6,8,8-trimethyl-2-(8-oxa-3-azabicyclo[3.2.1]oct-3-yl)-5-oxo-5,6,7,8-tetrahydro-9-oxa-1,3,6-triazabenzocyclohepten-4-yl]phenyl}urea]: the “PI3Ka IC50” value at PI3Kα (p110α/p85α) is given as 3000 nM. In addition, the IC50 came out at 32 nM in test [1], 161 nM in the test with U87MG tumour cells (setting [2]) and 41 nM with Akt-pS473 in U87MG cells (setting [3]).

Values taken from patent US9120812B2, “Pyrimidooxazocine derivatives as mTOR-inhibitors” (SANOFI, priority 2012, dated 2015).
